Experimental data from patent US10995103B2, “Substituted boric acid compound, pharmaceutical composition comprising same, and application thereof” (Shenzhen TargetRx, Inc., priority 2016, dated 2021).

Experiments:
[1] = Metabolic stability evaluation in rat liver microsomes; assay type: in vitro ADME; details: SD, pH 7.4, rat liver microsomes 0.5 mg/mL, compound 1 μM, NADPH, 37° C.; for microsomal CLint at 1 μM: read-out: CLint, experiment in rat liver microsomes; for half-life at 1 μM: read-out: t1/2, experiment in rat liver microsomes
Experimental: (§1) Experiments in microsomes: Human liver microsomes: 0.5 mg/mL, Xenotech; Rat liver microsomes: 0.5 mg/mL, Xenotech; Coenzyme (NADPH/NADH): 1 mM, Sigma Life Science; Magnesium chloride: 5 mM, 100 mM phosphate buffer (pH 7.4).
(§2) Preparation of stock solution: A certain amount of powder of the example compounds was accurately weighed and dissolved in DMSO to 5 mM respectively.
(§3) Preparation of phosphate buffer (100 mM, pH7.4): A pre-formulated 150 mL potassium dihydrogen phosphate (0.5 M) was mixed with 700 mL of dibasic potassium phosphate (0.5M). The pH of the mixture was adjusted to 7.4 with 0.5 M dibasic potassium phosphate solution. The mixture was diluted 5-fold with ultrapure water before use, and magnesium chloride was added to obtain the phosphate buffer (100 mM) containing 100 mM potassium phosphate, 3.3 mM magnesium chloride, pH 7.4.
(§4) A NADPH regeneration system solution (containing 6.5 mM NADP, 16.5 mM G-6-P, 3 U/mL G-6-P D, 3.3 mM magnesium chloride) was prepared and placed on wet ice before use.
(§5) Preparation of stop solution: acetonitrile solution containing 50 ng/mL propranolol hydrochloride and 200 ng/mL tolbutamide (internal standard). 25057.5 μL of phosphate buffer (pH 7.4) was taken into a 50 mL centrifuge tube, to which 812.5 μL human liver microsomes were added, respectively, and mixed to obtain a liver microsome dilution solution with a protein concentration of 0.625 mg/mL. 25057.5 μL of phosphate buffer (pH 7.4) was taken into a 50 mL centrifuge tube, to which 812.5 μL SD rat liver microsomes were added, respectively, and mixed to obtain a liver microsome dilution solution with a protein concentration of 0.625 mg/mL.
(§6) Incubation of the samples: The stock solution of the respective compounds was respectively diluted to 0.25 mM with an aqueous solution containing 70% acetonitrile, which were used as working solutions, ready for use. 398 μL of the dilution solution of human liver microsomes or rat liver microsomes were added to a 96-well incubation plate (N=2), respectively, and 2 μL of 0.25 mM working solution was added and mixed.
(§7) Metabolic stability assay: 300 μL of pre-chilled stop solution was added to each well of a 96-well deep well plate and placed on ice as the stop plate. The 96 well incubation plate and NADPH regeneration system were placed in a 37° C. water bath box, shaken at 100 rpm and pre-incubated for 5 min. 80 μL of incubation solution was taken out from each well of the incubation plate and added to the stop plate, mixed, and replenished with 20 μL of NADPH regeneration system solution as a 0-min sample. 80 μL of NADPH regeneration system solution was added to each well of the incubation plate to start the reaction and counting was started. […] 100 μL of the reaction solution was taken at 10, 30, and 90 min after reaction, respectively, added to the stop plate, and vortexed for 3 minutes to terminate the reaction. The stop plate was centrifuged for 4 min at 5000× g at 4° C. 100 μL of the supernatant was added to a 96-well plate to which 100 μL of distilled water was previously added, mixed, and analyzed by LC-MS/MS.
(§8) Data analysis: The peak areas of the corresponding compounds and internal standard were detected by LC-MS/MS system, and the ratio of the peak area of the compounds to the internal standard was calculated.
(§9) The metabolic stability in human and rat liver microsomes was evaluated by simultaneously testing and comparing the compounds disclosed herein and the non-deuterated compound. The non-deuterated compound Ixazomib was used as a control in the table.

[2] = Metabolic stability evaluation in human liver microsomes; assay type: in vitro ADME; details: pH 7.4, human liver microsomes 0.5 mg/mL, compound 1 μM, NADPH, 37° C.; for microsomal CLint at 1 μM: read-out: CLint, experiment in human liver microsomes; for half-life at 1 μM: read-out: t1/2, experiment in human liver microsomes
Experimental: as §1, §2, §3, §4, §5, §6, §7, §8, §9

Row | SMILES | microsomal CLint at 1 μM [1] [µL/min/mg] | half-life at 1 μM [1] [min] | microsomal CLint at 1 μM [2] [µL/min/mg] | half-life at 1 μM [2] [min]
1 | [2H][C@@](CC(C)C)(NC(=O)CNC(=O)c1cc(Cl)ccc1Cl)B(O)O [Compound I-2, (R)-(1-(2-(2,5-dichlorobenzamido)acetamido)-1-d-3-methylbutyl)boronic Acid] | 90.5 | 15.3 | 46.5 | 29.8
2 | [2H]C([2H])(NC(=O)c1cc(Cl)ccc1Cl)C(=O)N[C@@]([2H])(CC(C)C)B(O)O [Compound I-4, (R)-(1-(2-(2,5-dichlorobenzamido)-2,2-d2-acetamido)-1-d-3-methylbutyl)boronic Acid] | 90 | 15.4 | 48.3 | 28.7
3 | [2H]C([2H])(NC(=O)c1cc(Cl)ccc1Cl)C(=O)N[C@@H](CC(C)C)B(O)O [Compound I-1, (R)-(1-(2-(2,5-dichlorobenzamido)-2,2-d2-acetamido)-3-methylbutyl)boronic acid] | 81.3 | 17.1 |  | 
4 | [2H]C([2H])(C(C)C)[C@H](NC(=O)CNC(=O)c1cc(Cl)ccc1Cl)B(O)O [Compound I-3, (R)-(1-(2-(2,5-dichlorobenzamido)acetamido)-2,2-d2-3-methylbutyl)boronic Acid] |  |  | 47.3 | 29.3
5 | [2H]C([2H])(C(C)C)[C@]([2H])(NC(=O)CNC(=O)c1cc(Cl)ccc1Cl)B(O)O [Compound I-5, (R)-(1-(2-(2,5-dichlorobenzamido)acetamido)-1-d-2,2-d2-3-methylbutyl)boronic Acid] | 97.8 | 14.2 | 47.3 | 29.3
6 | CC(C)C[C@H](NC(=O)CNC(=O)c1cc(Cl)ccc1Cl)B(O)O [Ixazomib, reference compound] | 97.3 | 14.3 | 49.4 | 28.1
